Data from patent US11028095B2, “Spiro-lactam and bis-spiro-lactam NMDA receptor modulators and uses thereof” (Aptinyx Inc., priority 2016, dated 2021).
Where two headings read alike, the source gives them in different places.

Columns and labels:
[1] = Oral pharmacokinetics (plasma, brain, CSF); type: in vivo; set-up: Cmax: unit: ng/mL; conditions: Sprague Dawley rats, per os, 10 mg/kg; for Tmax: normal saline
Procedure: In another experiment, Sprague Dawley rats were dosed per os using a normal saline formulation containing 10 mg/kg of the compounds identified in the table below. Plasma, brain, and CSF samples were analyzed at various time points over a 24 hour period. The table below summarizes the results of the oral pharmacokinetics.

[2] = Microsomal stability (Human); type: in vitro ADME; conditions: human microsomes
Procedure: (§1) Microsomal stability of disclosed compounds was investigated. The following table indicates the percent of compound remaining after 60 minutes.

[3] = test system: positive (hedonic) 50-kHz ultrasonic vocalizations (USVs); assay: Positive Emotional Learning (PEL) test; type: in vivo; conditions: rat, PO, one hour after administration
Procedure: Experiments were conducted as described in Burgdorf et al., “The effect of selective breeding for differential rates of 50-kHz ultrasonic vocalizations on emotional behavior in rats,” Devel. […] Rat 50-kHz ultrasonic vocalization (hedonic USVs) is a validated model for the study of positive affective state and is best elicited by rough-and-tumble play.
The PEL assay measures the acquisition of positive (hedonic) 50-kHz ultrasonic vocalizations (USVs) to a social stimulus, heterospecific rough and tumble play stimulation. Heterospecific rough-and-tumble play stimulation was administered by the experimenter's right hand. One hour after administration of test compound or vehicle negative control (0.5% sodium carboxymethyl cellulose in 0.9% sterile saline vehicle), animals received 3 min of heterospecific rough-and-tumble play that consisted of alternating 15 sec blocks of heterospecific play and 15 sec of no-stimulation. […] Frequency modulated 50-kHz USVs that occurred during each of the no-stimulation periods were quantified to measure PEL. Animals were not habituated to play stimulation before testing. Positive emotional learning was measured during the conditioned stimulus (CS) trials preceding the tickle unconditioned stimulus (UCS) trials. Animals received 15 second trials consisting of 6 CS and 6 UCS trials each (3 min total).

[4] = target: T1, NMDAR2A expressing HEK cell membranes (Homo sapiens, UniProt Q05586+Q12879); assay: NMDAR agonist assay, [3H]MK-801 binding, NMDAR2A; type: biochemical; conditions: for EC50: [3H]MK-801 binding; for Emax: relative to 1 mM glycine, read-out: NMDAR2A: % maximal [3H]MK-801 binding relative to 1 mM glycine
T1 construct: expressed in transfected cells; host or cells: HEK cells (membrane extract)
Procedure: (§2) (nonequilibrium conditions).
(§3) The baseline value was determined from the best fit curve of the DPM values modeled using the GraphPad program and the log(agonist) vs. response(three parameters) algorithm was then subtracted from all points in the dataset.

[5] = IV pharmacokinetics; type: in vivo; set-up: C0: unit: ng/mL; conditions: 2 mg/kg, Sprague Dawley rats, normal saline; for Vd: read-out: Vss
Procedure: Sprague Dawley rats were dosed intravenously using a normal saline formulation containing 2 mg/kg of the compounds identified in the below table. The table below summarizes the results of the IV pharmacokinetics.

[6] = Microsomal stability (Rat); type: in vitro ADME; conditions: rat microsomes
Procedure: as §1

[7] = Plasma stability (Human); type: in vitro ADME
Procedure: (§4) Plasma stability of disclosed compounds was investigated. The following table indicates the percent of compound remaining after 60 minutes.

[8] = target: T2, NMDAR2D expressing HEK cell membranes (Homo sapiens, UniProt O15399+Q05586); assay: NMDAR agonist assay, [3H]MK-801 binding, NMDAR2D; type: biochemical; conditions: for EC50: [3H]MK-801 binding, read-out: NMDAR2D: log EC50 (converted); for Emax: read-out: NMDAR2D: % maximal [3H]MK-801 binding relative to 1 mM glycine
T2 construct: expressed in transfected cells; host or cells: HEK cells (membrane extract)
T2 sequence (O15399 28-1336, other chains not shown): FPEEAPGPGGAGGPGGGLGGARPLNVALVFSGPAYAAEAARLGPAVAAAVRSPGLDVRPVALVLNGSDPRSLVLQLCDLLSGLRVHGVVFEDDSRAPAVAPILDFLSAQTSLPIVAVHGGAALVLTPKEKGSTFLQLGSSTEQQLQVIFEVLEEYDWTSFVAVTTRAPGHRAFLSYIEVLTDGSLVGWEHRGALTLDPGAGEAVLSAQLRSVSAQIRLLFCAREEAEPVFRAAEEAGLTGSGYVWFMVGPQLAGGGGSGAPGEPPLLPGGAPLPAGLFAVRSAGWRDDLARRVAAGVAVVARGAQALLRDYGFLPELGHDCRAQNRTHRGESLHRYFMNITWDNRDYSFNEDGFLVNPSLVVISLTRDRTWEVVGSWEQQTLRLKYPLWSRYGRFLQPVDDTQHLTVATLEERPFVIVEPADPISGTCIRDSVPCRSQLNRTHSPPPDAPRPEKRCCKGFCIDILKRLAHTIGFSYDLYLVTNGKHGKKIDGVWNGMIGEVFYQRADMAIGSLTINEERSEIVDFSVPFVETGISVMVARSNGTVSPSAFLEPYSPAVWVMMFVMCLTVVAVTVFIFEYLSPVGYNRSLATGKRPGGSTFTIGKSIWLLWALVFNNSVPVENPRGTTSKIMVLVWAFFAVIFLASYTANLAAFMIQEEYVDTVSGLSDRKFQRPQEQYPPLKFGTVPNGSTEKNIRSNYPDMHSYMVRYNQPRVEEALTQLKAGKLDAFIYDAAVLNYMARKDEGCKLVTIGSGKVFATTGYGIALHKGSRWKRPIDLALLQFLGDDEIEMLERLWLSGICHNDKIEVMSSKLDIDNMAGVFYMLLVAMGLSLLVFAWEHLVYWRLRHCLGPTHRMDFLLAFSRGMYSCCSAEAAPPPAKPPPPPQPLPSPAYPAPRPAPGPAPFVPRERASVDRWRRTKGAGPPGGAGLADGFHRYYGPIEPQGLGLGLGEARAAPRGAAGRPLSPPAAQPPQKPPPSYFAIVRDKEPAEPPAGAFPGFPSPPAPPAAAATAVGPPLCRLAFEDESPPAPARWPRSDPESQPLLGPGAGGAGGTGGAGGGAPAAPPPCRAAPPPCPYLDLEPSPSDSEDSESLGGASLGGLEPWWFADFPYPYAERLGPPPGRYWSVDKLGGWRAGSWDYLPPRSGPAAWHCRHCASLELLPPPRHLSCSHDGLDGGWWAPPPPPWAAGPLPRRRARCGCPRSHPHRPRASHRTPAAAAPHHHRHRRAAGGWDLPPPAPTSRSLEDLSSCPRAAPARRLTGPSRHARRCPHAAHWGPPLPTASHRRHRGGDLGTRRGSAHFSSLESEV
Procedure: as §2, §3

[9] = target: T3, NMDAR2C expressing HEK cell membranes (Homo sapiens, UniProt Q05586+Q14957); assay: NMDAR agonist assay, [3H]MK-801 binding, NMDAR2C; type: biochemical; conditions: for EC50: [3H]MK-801 binding
T3 construct: expressed in transfected cells; host or cells: HEK cells (membrane extract)
T3 sequence (Q14957 20-1233, other chains not shown): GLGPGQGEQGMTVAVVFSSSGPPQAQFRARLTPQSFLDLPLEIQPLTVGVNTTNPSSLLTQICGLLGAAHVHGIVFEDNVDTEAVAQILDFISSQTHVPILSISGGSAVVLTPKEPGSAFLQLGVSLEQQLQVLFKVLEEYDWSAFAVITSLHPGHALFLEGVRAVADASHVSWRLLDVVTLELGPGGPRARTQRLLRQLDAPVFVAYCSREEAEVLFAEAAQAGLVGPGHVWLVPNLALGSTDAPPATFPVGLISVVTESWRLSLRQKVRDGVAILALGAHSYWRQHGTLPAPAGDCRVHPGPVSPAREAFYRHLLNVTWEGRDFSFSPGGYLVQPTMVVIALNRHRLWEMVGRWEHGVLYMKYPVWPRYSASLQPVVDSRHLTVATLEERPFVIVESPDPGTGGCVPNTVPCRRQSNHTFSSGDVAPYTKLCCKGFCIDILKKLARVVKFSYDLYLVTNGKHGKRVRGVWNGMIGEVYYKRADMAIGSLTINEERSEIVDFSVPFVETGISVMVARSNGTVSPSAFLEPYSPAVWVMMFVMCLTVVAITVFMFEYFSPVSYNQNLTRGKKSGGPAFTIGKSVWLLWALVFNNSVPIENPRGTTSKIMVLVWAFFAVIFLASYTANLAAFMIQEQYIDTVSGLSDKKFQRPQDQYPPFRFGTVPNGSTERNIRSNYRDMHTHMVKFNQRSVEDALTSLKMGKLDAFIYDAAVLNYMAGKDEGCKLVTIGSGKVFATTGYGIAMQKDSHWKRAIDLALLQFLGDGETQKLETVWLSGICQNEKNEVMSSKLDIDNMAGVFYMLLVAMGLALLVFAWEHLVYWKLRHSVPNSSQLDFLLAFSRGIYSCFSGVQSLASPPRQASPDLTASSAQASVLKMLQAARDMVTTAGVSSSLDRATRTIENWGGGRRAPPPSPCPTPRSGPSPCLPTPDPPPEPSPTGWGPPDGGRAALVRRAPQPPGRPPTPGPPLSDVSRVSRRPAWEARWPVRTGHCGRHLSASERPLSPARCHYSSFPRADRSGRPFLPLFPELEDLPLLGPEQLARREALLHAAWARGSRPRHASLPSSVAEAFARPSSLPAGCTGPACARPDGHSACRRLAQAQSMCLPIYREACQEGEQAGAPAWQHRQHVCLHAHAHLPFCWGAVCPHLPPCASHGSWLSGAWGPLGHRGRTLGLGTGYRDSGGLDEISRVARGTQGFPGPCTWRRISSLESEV
Procedure: as §2, §3

[10] = target: T4, NMDAR2B expressing HEK cell membranes (Homo sapiens, UniProt Q05586+Q13224); assay: NMDAR agonist assay, [3H]MK-801 binding, NMDAR2B; type: biochemical; conditions: for EC50: [3H]MK-801 binding; for Emax: relative to 1 mM glycine, read-out: NMDAR2B: % maximal [3H]MK-801 binding relative to 1 mM glycine
T4 construct: expressed in transfected cells; host or cells: HEK cells (membrane extract)
Procedure: as §2, §3

[11] = Plasma stability (Rat); type: in vitro ADME
Procedure: as §4

[12] = target: T5, NMDAR2A expressing HEK cell membranes (Homo sapiens, UniProt Q12879); assay: NMDAR agonist assay, [3H]MK-801 binding, NMDAR2A; type: biochemical; conditions: 50 μM glutamate
T5 construct: expressed in transfected cells; host or cells: HEK cells (membrane extract)
Procedure: as §2, §3

[13] = target: T6, NMDAR2B expressing HEK cell membranes (Homo sapiens, UniProt Q13224); assay: NMDAR agonist assay, [3H]MK-801 binding, NMDAR2B; type: biochemical; conditions: 50 μM glutamate
T6 construct: expressed in transfected cells; host or cells: HEK cells (membrane extract)
T6 sequence (Q13224 27-1484, other chains not shown): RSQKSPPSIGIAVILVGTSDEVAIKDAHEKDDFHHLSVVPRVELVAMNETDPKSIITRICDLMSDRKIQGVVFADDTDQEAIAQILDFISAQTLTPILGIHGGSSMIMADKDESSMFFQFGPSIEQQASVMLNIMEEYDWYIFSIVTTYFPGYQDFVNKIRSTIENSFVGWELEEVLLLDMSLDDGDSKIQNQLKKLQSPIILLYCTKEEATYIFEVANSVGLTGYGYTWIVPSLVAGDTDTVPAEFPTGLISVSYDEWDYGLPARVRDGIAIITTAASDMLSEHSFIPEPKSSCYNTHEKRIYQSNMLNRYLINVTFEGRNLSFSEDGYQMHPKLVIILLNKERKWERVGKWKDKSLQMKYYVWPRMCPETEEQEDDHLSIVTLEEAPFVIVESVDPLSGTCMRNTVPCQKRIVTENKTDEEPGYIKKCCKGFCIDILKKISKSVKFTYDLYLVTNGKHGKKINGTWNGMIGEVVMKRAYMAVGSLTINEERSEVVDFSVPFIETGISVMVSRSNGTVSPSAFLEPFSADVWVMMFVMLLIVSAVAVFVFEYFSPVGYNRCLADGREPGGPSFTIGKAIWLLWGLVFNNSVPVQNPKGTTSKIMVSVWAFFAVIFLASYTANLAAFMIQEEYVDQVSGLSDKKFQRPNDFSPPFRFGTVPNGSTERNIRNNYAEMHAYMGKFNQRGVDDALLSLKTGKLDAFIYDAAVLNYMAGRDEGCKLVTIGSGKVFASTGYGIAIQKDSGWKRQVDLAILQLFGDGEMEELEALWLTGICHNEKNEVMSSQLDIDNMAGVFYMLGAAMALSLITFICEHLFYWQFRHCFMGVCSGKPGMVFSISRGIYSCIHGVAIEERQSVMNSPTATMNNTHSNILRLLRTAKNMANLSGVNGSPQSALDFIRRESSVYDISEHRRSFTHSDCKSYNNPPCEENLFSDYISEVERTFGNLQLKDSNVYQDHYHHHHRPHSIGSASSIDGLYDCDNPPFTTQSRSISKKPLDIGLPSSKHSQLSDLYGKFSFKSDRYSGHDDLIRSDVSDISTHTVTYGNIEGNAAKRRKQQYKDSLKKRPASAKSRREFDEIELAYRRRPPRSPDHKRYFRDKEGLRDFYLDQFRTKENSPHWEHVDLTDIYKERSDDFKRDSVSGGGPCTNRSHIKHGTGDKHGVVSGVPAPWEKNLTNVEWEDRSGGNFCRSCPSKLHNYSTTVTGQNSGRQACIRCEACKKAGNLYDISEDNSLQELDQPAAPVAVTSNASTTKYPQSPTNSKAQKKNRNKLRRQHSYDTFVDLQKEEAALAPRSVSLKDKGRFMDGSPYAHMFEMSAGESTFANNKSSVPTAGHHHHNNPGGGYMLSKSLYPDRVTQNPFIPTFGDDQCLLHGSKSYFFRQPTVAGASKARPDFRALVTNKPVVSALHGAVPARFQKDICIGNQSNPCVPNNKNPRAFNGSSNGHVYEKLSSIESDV
Procedure: as §2, §3

[14] = Sprague Dawley, rat, plasma, po
[15] = Sprague Dawley, rat, plasma, po, read-out: Tmax
[16] = Sprague Dawley, rat, plasma, po, plasma, read-out: Cmax
[17] = 50 μM glutamate, read-out: NMDAR2A: log EC50 (converted)
[18] = Sprague Dawley, rat, in vivo, iv
[19] = Sprague Dawley, rat, in vivo, iv, read-out: C0
[20] = 50 μM glutamate, relative to 1 mM glycine
[21] = 50 μM glutamate, relative to 1 mM glycine, read-out: NMDAR2C A: % maximal [3H]MK-801 binding relative to 1 mM glycine
[22] = 50 μM glutamate, read-out: NMDAR2B log EC50 (converted)
[23] = 50 μM glutamate, read-out: NMDAR2C: log EC50 (converted)

| SMILES | CSF Cmax [1] | Brain Cmax [1] | AUC(0-t) [1, 14] | Tmax [1, 15] | Cmax [1, 16] | Microsomal (Human): percent of compound remaining after 60 minutes [2] | EC50 [4, 17] | AUC(0-t) [5, 18] | clearance [5, 18] | half-life [5, 18] | C0 [5, 19] | Vd [5, 18] | Microsomal (Rat): percent of compound remaining after 60 minutes [6] | Plasma (Human): percent of compound remaining after 60 minutes [7] | Emax [9, 21] | EC50 [10, 22] | Plasma (Rat): percent of compound remaining after 60 minutes [11] | Max Effect (mean number of 50 kHz USVs per 15 seconds) ([3]; dose 0.1 mg/kg) | NMDAR2A: % maximal [3H]MK-801 binding relative to 1 mM glycine [12] | NMDAR2B: % maximal [3H]MK-801 binding relative to 1 mM glycine [13] | other results |
| --- | --- | --- | --- | --- | --- | --- | --- | --- | --- | --- | --- | --- | --- | --- | --- | --- | --- | --- | --- | --- | --- |
| C[C@@H](O)[C@H](NC(=O)C1CCC2(CNC2=O)N1)C(N)=O (single isomer, unassigned) [AQ-1] | 0 ng/mL | 0 ng/mL | 350 ng·h/mL | 49.8 min | 133 ng/mL | 100% | < 1 nM | 3330 ng·h/mL | 9.84 mL/min/kg | 21.6 min | 6820 ng/mL | 0.28 L/kg | 84% | 100% | < 100% | < 1 nM | 100% | – | – | – | % F [1]: 2%; Max Effect (mean number of 50 kHz USVs per 15 seconds) ([3]; dose 0.1 mg/kg, 0.1 mg/kg): ** (**: 11-16.9); Emax ([4]; 50 μM glutamate): < 100%; EC50 ([8]; 50 μM glutamate): < 1 nM; Emax [8, 20]: < 100%; Emax ([10]; 50 μM glutamate): < 100% |
| CC(=O)N1C(C(=O)N[C@H](C(N)=O)[C@@H](C)O)CCC12CNC2=O (stereo partly drawn) [AO, 5-acetyl-N-((2S,3R)-1-amino-3-hydroxy-1-oxobutan-2-yl)-1-oxo-2,5-diazaspiro[3.4]octane-6-carboxamide] | 17.89 ng/mL | 0 ng/mL | 1320 ng·h/mL | 160 min | 247 ng/mL | 100% | > 100 nM | 4430 ng·h/mL | 7.59 mL/min/kg | 130 min | 11900 ng/mL | 0.22 L/kg | 100% | 100% | – | < 1 nM | 93% | ** (**: 11-16.9) | – | – | bioavailability [1, 14]: 6%; Emax ([4]; 50 μM glutamate): 0%; Emax ([10]; 50 μM glutamate): < 100% |
| CC(C)(C)OC(=O)N1CC2(CN(OCc3ccccc3)C2=O)CC12CN(OCc1ccccc1)C2=O (single isomer, unassigned) [AW, tert-butyl 2,8-bis(benzyloxy)-1,7-dioxo-2,8,10-triazadispiro[3.1.36.24]undecane-10-carboxylate] | – | – | – | – | – | 2% | < 1 nM | – | – | – | – | – | 0% | 90% | < 100% | – | 0% | ** (**: 11-16.9) | + (<100%=+) | ++ (>100%=++) | EC50 ([8]; 50 μM glutamate): < 1 nM; Emax [8, 20]: < 100%; EC50 [9, 23]: < 1 nM |
| C[C@@H](O)[C@H](NC(=O)C1CCC2(CNC2=O)N1)C(N)=O (single isomer, unassigned) [AQ-2] | 0 ng/mL | 0 ng/mL | – | – | – | 100% | – | – | – | – | – | – | 100% | 100% | – | – | 95% | – | + (<100%=+) | + (<100%=+) | % F [1]: 5%; AUClast [1]: 599.6 ng·h/mL; Tmax [1]: 64.8 min; Cmax ([1]; plasma): 144.2 ng/mL; Max Effect (mean number of 50 kHz USVs per 15 seconds) ([3]; dose 0.1 mg/kg, 0.1 mg/kg): * (*: 6-10.9); EC50 ([12]; [3H]MK-801 binding, read-out: NMDAR2A: log EC50 (converted)): < 1 nM; AUClast [5]: 2601.7 ng·h/mL; C0 [5]: 5143.2 ng/mL; Cl [5]: 12.82 mL/min/kg; T1/2 [5]: 35.4 min; Vss [5]: 0.36 L/kg; EC50 ([13]; [3H]MK-801 binding, read-out: NMDAR2B log EC50 (converted)): < 1 nM |
| CC(C)(C)OC(=O)N1C(C(N)=O)CCC12CN(OCc1ccccc1)C2=O (single isomer, unassigned) [BH, tert-butyl 2-(benzyloxy)-6-carbamoyl-1-oxo-2,5-diazaspiro[3.4]octane-5-carboxylate] | 36.66 ng/mL | 0 ng/mL | 614 ng·h/mL | 15 min | 859 ng/mL | 100% | > 100 nM | 656 ng·h/mL | 50.5 mL/min/kg | 20.4 min | 2390 ng/mL | 0.82 L/kg | 100% | 90% | > 100% | < 1 nM | 95% | ** (**: 11-16.9) | − (−=0) | + (<100%=+) | bioavailability [1, 14]: 18%; EC50 [9, 23]: < 1 nM |
| CN1C2(CCC13CNC3=O)CNC2=O (single isomer, unassigned) [AB-2, 5-methyl-2,5,8-triazadispiro[3.1.36.24]undecane-1,7-dione] | – | – | – | – | – | 72% | – | – | – | – | – | – | 78% | 86% | – | – | 83% | – | − (−=0) | + (<100%=+) | Max Effect (mean number of 50 kHz USVs per 15 seconds) ([3]; dose 0.001-1 mg/kg): ** (**: 11-16.9); EC50 ([4]; NMDAR2A: log EC50, 50 μM glutamate): > 100 nM; Emax [8]: < 100%; EC50 ([9]; NMDAR2C: log EC50, 50 μM glutamate): < 1 nM; Emax ([9]; read-out: NMDAR2C: % maximal [3H]MK-801 binding relative to 1 mM glycine): < 100%; EC50 ([10]; NMDAR2B: log EC50, 50 μM glutamate): < 1 nM |
| CC(C)C(=O)N1C(C(=O)N[C@H](C(N)=O)[C@@H](C)O)CCC12CNC2=O (single isomer, unassigned) [AS] | 0 ng/mL | 0 ng/mL | 367 ng·h/mL | 49.8 min | 75.4 ng/mL | 84% | < 1 nM | 2800 ng·h/mL | 11.8 mL/min/kg | 190 min | 2230 ng/mL | 0.61 L/kg | 100% | 100% | – | < 1 nM | 100% | ** (**: 11-16.9) | + (<100%=+) | + (<100%=+) | bioavailability [1, 14]: 3% |
